Laboratory results taken from PubChem BioAssay AID1963849 (Molecular Pharmacology Branch, DTP, NCI, 2024).

System: 299254-011-R-J1-PDC complex spheroid viability
Test: Anticancer human tumor 299254-011-R-J1-PDC patient-derived melanoma cell line growth inhibition [POLQ]
Settings: for IC50: curve of first compound; for viability, T/C: stronger effect = lower value; active = viability on the fitted dose curve at most 10% of control; inactive = the rest
Method in brief: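 Growth inhibition in 3D: complex spheroids (tumor PDC, HUVEC, MSC) treated with POLQ inhibitor combinations; where Cmax unknown, highest tested concentration 10 microM, except SN-38 at 1 microM.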

[1] = second compound 0.0316 µM, first compound 0.00316 µM
[2] = second compound 0.0316 µM, first compound 0.01 µM
[3] = second compound 0.0316 µM, first compound 0.0316 µM
[4] = second compound 0.0316 µM, first compound 0.1 µM
[5] = second compound 0.1 µM, first compound 0.00316 µM
[6] = second compound 0.1 µM, first compound 0.01 µM
[7] = second compound 0.1 µM, first compound 0.0316 µM
[8] = second compound 0.1 µM, first compound 0.1 µM
[9] = second compound 0.316 µM, first compound 0.00316 µM
[10] = second compound 0.316 µM, first compound 0.01 µM
[11] = second compound 0.316 µM, first compound 0.0316 µM
[12] = second compound 0.316 µM, first compound 0.1 µM
[13] = second compound 1 µM, first compound 0.00316 µM
[14] = second compound 1 µM, first compound 0.01 µM
[15] = second compound 1 µM, first compound 0.0316 µM
[16] = second compound 1 µM, first compound 0.1 µM
[17] = second compound 3.16 µM, first compound 0.00316 µM
[18] = second compound 3.16 µM, first compound 0.01 µM
[19] = second compound 3.16 µM, first compound 0.0316 µM
[20] = second compound 3.16 µM, first compound 0.1 µM
[21] = second compound 10 µM, first compound 0.00316 µM
[22] = second compound 10 µM, first compound 0.01 µM
[23] = second compound 10 µM, first compound 0.0316 µM
[24] = second compound 10 µM, first compound 0.1 µM
[25] = second compound 0.0316 µM, first compound 0.316 µM
[26] = second compound 0.0316 µM, first compound 1 µM
[27] = second compound 0.1 µM, first compound 0.316 µM
[28] = second compound 0.1 µM, first compound 1 µM
[29] = second compound 0.316 µM, first compound 0.316 µM
[30] = second compound 0.316 µM, first compound 1 µM
[31] = second compound 1 µM, first compound 0.316 µM
[32] = second compound 1 µM, first compound 1 µM
[33] = second compound 3.16 µM, first compound 0.316 µM
[34] = second compound 3.16 µM, first compound 1 µM
[35] = second compound 10 µM, first compound 0.316 µM
[36] = second compound 10 µM, first compound 1 µM
[37] = second compound 0.0316 µM, first compound 3.16 µM
[38] = second compound 0.0316 µM, first compound 10 µM
[39] = second compound 0.1 µM, first compound 3.16 µM
[40] = second compound 0.1 µM, first compound 10 µM
[41] = second compound 0.316 µM, first compound 3.16 µM
[42] = second compound 0.316 µM, first compound 10 µM
[43] = second compound 1 µM, first compound 3.16 µM
[44] = second compound 1 µM, first compound 10 µM
[45] = second compound 3.16 µM, first compound 3.16 µM
[46] = second compound 3.16 µM, first compound 10 µM
[47] = second compound 10 µM, first compound 3.16 µM
[48] = second compound 10 µM, first compound 10 µM
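Also: spheroids exposed to drugs for one week before measurement.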
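For viability, T/C in this document: percent viability relative to DMSO vehicle control taken as 100%.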

Cn1ncnc1[C@H]1c2n[nH]c(=O)c3cc(F)cc(c23)N[C@@H]1c1ccc(F)cc1 + Cc1cccc(N(C)C(=O)C2C(O)CCN2c2nc(C)cc(C(F)(F)F)c2C#N)c1
> 0.1 µM: IC50 (second compound 0.0316 µM) | IC50 (second compound 0.1 µM) | IC50 (second compound 0.316 µM) | IC50 (second compound 1 µM) | IC50 (second compound 3.16 µM) | IC50 (second compound 10 µM)
inactive: viability, T/C (second compound 0.0316 µM, first compound 0.000316 µM) 102% | viability, T/C (second compound 0.0316 µM, first compound 0.001 µM) 91.6% | viability, T/C [1] 95.9% | viability, T/C [2] 110% | viability, T/C [3] 112% | viability, T/C [4] 113% | viability, T/C (second compound 0.1 µM, first compound 0.000316 µM) 119% | viability, T/C (second compound 0.1 µM, first compound 0.001 µM) 108% | viability, T/C [5] 117% | viability, T/C [6] 106% | viability, T/C [7] 114% | viability, T/C [8] 119% | viability, T/C (second compound 0.316 µM, first compound 0.000316 µM) 108% | viability, T/C (second compound 0.316 µM, first compound 0.001 µM) 96.4% | viability, T/C [9] 102% | viability, T/C [10] 114% | viability, T/C [11] 106% | viability, T/C [12] 102% | viability, T/C (second compound 1 µM, first compound 0.000316 µM) 111% | viability, T/C (second compound 1 µM, first compound 0.001 µM) 116% | viability, T/C [13] 103% | viability, T/C [14] 114% | viability, T/C [15] 102% | viability, T/C [16] 94.1% | viability, T/C (second compound 3.16 µM, first compound 0.000316 µM) 90.1% | viability, T/C (second compound 3.16 µM, first compound 0.001 µM) 109% | viability, T/C [17] 103% | viability, T/C [18] 111% | viability, T/C [19] 122% | viability, T/C [20] 114% | viability, T/C (second compound 10 µM, first compound 0.000316 µM) 93.6% | viability, T/C (second compound 10 µM, first compound 0.001 µM) 107% | viability, T/C [21] 113% | viability, T/C [22] 94% | viability, T/C [23] 98% | viability, T/C [24] 99%

CCc1c2c(nc3ccc(O)cc13)-c1cc3c(c(=O)n1C2)COC(=O)[C@]3(O)CC + Cc1cccc(N(C)C(=O)C2C(O)CCN2c2nc(C)cc(C(F)(F)F)c2C#N)c1
> 1 µM: IC50 (second compound 0.0316 µM) | IC50 (second compound 0.1 µM) | IC50 (second compound 0.316 µM) | IC50 (second compound 1 µM) | IC50 (second compound 3.16 µM) | IC50 (second compound 10 µM)
inactive: viability, T/C [1] 95.9% | viability, T/C [2] 79.2% | viability, T/C [3] 72.9% | viability, T/C [4] 67.8% | viability, T/C [25] 62.5% | viability, T/C [26] 53.7% | viability, T/C [5] 92.8% | viability, T/C [6] 95.7% | viability, T/C [7] 65.3% | viability, T/C [8] 67.6% | viability, T/C [27] 72.8% | viability, T/C [28] 56.4% | viability, T/C [9] 104% | viability, T/C [10] 86.3% | viability, T/C [11] 75.3% | viability, T/C [12] 76.2% | viability, T/C [29] 56.7% | viability, T/C [30] 53% | viability, T/C [13] 111% | viability, T/C [14] 88.5% | viability, T/C [15] 75.1% | viability, T/C [16] 64.7% | viability, T/C [31] 68.6% | viability, T/C [32] 49.6% | viability, T/C [17] 112% | viability, T/C [18] 79% | viability, T/C [19] 72.1% | viability, T/C [20] 64.8% | viability, T/C [33] 71.6% | viability, T/C [34] 60% | viability, T/C [21] 88.6% | viability, T/C [22] 69.3% | viability, T/C [23] 57.9% | viability, T/C [24] 81.5% | viability, T/C [35] 60.1% | viability, T/C [36] 49.7%

C#Cc1c(F)ccc2cc(O)cc(-c3ncc4c(N5CC6CCC(C5)N6)nc(OCC56CCCN5CC(F)C6)nc4c3F)c12 (stereo not drawn) + Cc1cccc(N(C)C(=O)C2C(O)CCN2c2nc(C)cc(C(F)(F)F)c2C#N)c1
> 10 µM: IC50 (second compound 0.0316 µM) | IC50 (second compound 0.1 µM) | IC50 (second compound 0.316 µM) | IC50 (second compound 1 µM) | IC50 (second compound 3.16 µM) | IC50 (second compound 10 µM)
inactive: viability, T/C [3] 113% | viability, T/C [4] 102% | viability, T/C [25] 123% | viability, T/C [26] 120% | viability, T/C [37] 124% | viability, T/C [38] 93.9% | viability, T/C [7] 105% | viability, T/C [8] 122% | viability, T/C [27] 120% | viability, T/C [28] 125% | viability, T/C [39] 97.8% | viability, T/C [40] 85.5% | viability, T/C [11] 105% | viability, T/C [12] 108% | viability, T/C [29] 124% | viability, T/C [30] 99.2% | viability, T/C [41] 114% | viability, T/C [42] 75.5% | viability, T/C [15] 123% | viability, T/C [16] 109% | viability, T/C [31] 113% | viability, T/C [32] 113% | viability, T/C [43] 103% | viability, T/C [44] 74.6% | viability, T/C [19] 114% | viability, T/C [20] 99.9% | viability, T/C [33] 118% | viability, T/C [34] 111% | viability, T/C [45] 92% | viability, T/C [46] 78.1% | viability, T/C [23] 110% | viability, T/C [24] 108% | viability, T/C [35] 108% | viability, T/C [36] 105% | viability, T/C [47] 80.1% | viability, T/C [48] 64.2%

CC(C)n1c(=O)n(C)c2cnc3cc(F)c(-c4ccc(OCCCN5CCCCC5)nc4)cc3c21 + Nc1ccc(C#CCN(C(=O)Cc2ncc(C(F)(F)F)cc2C(F)(F)F)c2ccc(F)cc2)nn1
inactive: viability, T/C [3] 112% | viability, T/C [4] 105% | viability, T/C [25] 105% | viability, T/C [26] 111% | viability, T/C [37] 109% | viability, T/C [38] 72.9% | viability, T/C [7] 105% | viability, T/C [8] 102% | viability, T/C [27] 121% | viability, T/C [28] 105% | viability, T/C [39] 102% | viability, T/C [40] 78.7% | viability, T/C [11] 126% | viability, T/C [12] 123% | viability, T/C [29] 89.7% | viability, T/C [30] 108% | viability, T/C [41] 97.3% | viability, T/C [42] 84.5% | viability, T/C [15] 105% | viability, T/C [16] 102% | viability, T/C [31] 91.8% | viability, T/C [32] 105% | viability, T/C [43] 93.1% | viability, T/C [44] 79.7% | viability, T/C [19] 115% | viability, T/C [20] 109% | viability, T/C [33] 113% | viability, T/C [34] 116% | viability, T/C [45] 96.7% | viability, T/C [46] 78.3% | viability, T/C [23] 93.5% | viability, T/C [24] 81.5% | viability, T/C [35] 98.1% | viability, T/C [36] 86.6% | viability, T/C [47] 79.5% | viability, T/C [48] 71.5%
> 10 µM: IC50 (second compound 0.0316 µM) | IC50 (second compound 0.1 µM) | IC50 (second compound 0.316 µM) | IC50 (second compound 1 µM) | IC50 (second compound 3.16 µM) | IC50 (second compound 10 µM)
